Test results taken from patent publication US10000765B2, “Gene encoding cytochrome P450, and use thereof” (NATIONAL INSTITUTE OF AGROBIOLOGICAL SCIENCES, priority 2011, dated 2018).

What was measured:
[1] = tested on: non-transformed Arabidopsis thaliana (NT); experiment: Drug sensitivity test on drug-containing MS medium, non-transformed Arabidopsis thaliana; assay type: in vivo
Experimental: A bag of mixed salts for Murashige-Skoog (MS) medium (manufactured by Wako Pure Chemical Industries, Ltd.) 20 g of sucrose, 3 mg of thiamin hydrochloride, 5 mg of nicotinic acid, and 0.5 mg of pyridoxine hydrochloride were dissolved in distilled water, and filled up to 1 L with distilled water. After pH adjustment to 5.8 to 6.3 with 1 M KOH, 3 g of Gelrite was added to the solution, and dissolved using a microwave. After that, the mixture was autoclaved to prepare a sterile MS medium. A test drug was added to this sterile MS medium so as to make a final concentration of 1.3, 4.1, 12, 37, 110, or 330 nM. Arabidopsis thaliana from a sterilized seed was seeded in the drug-containing MS medium, and cultivated at 22° C. for 12 to 14 days in a continuous light period.
Note that the drugs used in this Example were bispyribac-sodium, pyrithiobac-sodium, pyriminobac, bensulfuron-methyl, penoxsulam, pyrazosulfuron-ethyl, amidosulfuron, imazosulfuron, nicosulfuron, and propyrisulfuron.

[2] = tested on: CYP72A31-overexpressing rice (K31-4-6-2); experiment: Drug sensitivity test on gellan gum medium, CYP72A31-overexpressing rice; assay type: in vivo, Oryza sativa; conditions: for CK ratio (%): plant height compared with drug-free medium
Experimental: Next, 1.6 g of Hoagland's mix (Sigma-Aldrich Corporation) and 3 g of Gelrite (Wako Pure Chemical Industries, Ltd.) were suspended in 1 L of distilled water. Then, the mixture was dissolved and heated in a microwave. After that, the mixture was cooled to 50 to 60 degree C., and BS was added at a final concentration of 1 μM. This mixture was dispensed into 30-mL tubular bottles at 15 mL to prepare a gellan gum medium. Next, CSSL rice paddies were soaked in 0.5% sodium hypochlorite for about 20 minutes, and were then washed well with water. These paddies were soaked in distilled water, and kept at 27 degree C. for 3 to 5 days for germination. Germinating seeds were softly planted in sprout-side up on the gellan gum medium. These samples, together with a beaker filled with distilled water, were placed in a transparent case, which was then covered with a clear-plastic wrap. These samples were grown at 27 degree C. under fluorescent light illumination (14 hours of a light period and 10 hours of a dark period) for 7 to 9 days.
According to the method of Example 1, a gellan gum medium containing a test drug at a concentration of 0.01, 0.1, 1, or 10 μM was prepared. Rice seeds were sterilized, germinated, seeded in the medium, and cultivated.

[3] = tested on: Nipponbare and Kasalath calluses with CYP72A31 overexpression construct; experiment: Callus growth test on BS-containing medium, Kasalath CYP72A31 overexpression construct; assay type: cell-based, Oryza sativa; conditions: medium containing 0.25, 0.5, or 0.75 μM BS
Description: According to Example 5, an HptII::35Spro::Kasalath CYP72A31::Tnos vector plasmid (pCAMBIA1390-KasCYP72A31, a kasCYP72A31 overexpression construct) or, as a control, an HptII::35Spro::sGFP::Tnos vector plasmid (pCAMBIA1390-sGFP, an sGFP overexpression construct) was introduced into a rice variety (cultivars: Nipponbare and Kasalath) by using an Agrobacterium method. Transformed calluses selected with 50 ppm hygromycin were isolated, and transplanted onto a bispyribac-sodium (BS)-containing medium to examine callus growth.

[4] = tested on: Nipponbare calluses overexpressing Kasalath-derived or Nipponbare-derived CYP72A32 or CYP72A33; experiment: Callus growth test on BS-containing medium, CYP72A32 or CYP72A33 overexpression constructs; assay type: cell-based, Oryza sativa
Description: According to Example 5, an HptII::35Spro::Kasalath CYP72A32::Tnos vector plasmid (pCAMBIA1390-KasCYP72A32, a kasCYP72A32 overexpression construct), an HptII::35 Spro::Kasalath CYP72A33::Tnos vector plasmid (pCAMBIA1390-KasCYP72A33, a kasCYP72A33 overexpression construct), an HptII::35Spro::Nipponbare CYP72A32::Tnos vector plasmid (pCAMBIA1390-nbCYP72A32, an nbCYP72A32 overexpression construct), or an HptII::35Spro::Nipponbare CYP72A33::Tnos vector plasmid (pCAMBIA1390-nbCYP72A33, an nbCYP72A33 overexpression construct) was introduced into a rice variety (a cultivar: Nipponbare) by using an Agrobacterium method. Transformed calluses selected with 50 ppm hygromycin were isolated, and transplanted onto a bispyribac-sodium (BS)-containing medium to examine callus growth.

[5] = tested on: Arabidopsis thaliana K31-4-2 and K31-6-5; experiment: Growth test in BS-containing medium, Arabidopsis transformed with Kasalath-derived CYP72A31; assay type: in vivo; conditions: day 10 from onset of cultivation, compared to NT
Description: In this Example, Agrobacterium as prepared in Example 4 was used to introduce HptII::35Spro::Kasalath CYP72A31::Tnos vector plasmid (pCAMBIA1390-KasCYP72A31), HptII::35Spro::Kasalath CYP72A32::Tnos vector plasmid (pCAMBIA1390-KasCYP72A32), or HptII::35Spro::Kasalath CYP72A33::Tnos vector plasmid (pCAMBIA1390-KasCYP72A33) into Arabidopsis thaliana (ecotype: Col-0) by using a floral-dip method. The floral-dip method followed a standard method. […] K31-4-2 and K31-6-5 were selected as fixed lines derived from pCAMBIA1390-KasCYP72A31; K32-1-1, K32-3-1, and K32-5-1 were selected as fixed lines derived from pCAMBIA1390-KasCYP72A32; and K33-1-3 and K33-2-4 were selected as fixed lines derived from pCAMBIA1390-KasCYP72A33. Their seeds were seeded in a medium containing each concentration of BS, and cultivated for 10 days. FIGS. 16A and 16B illustrate the results.
Next, 15 seeds for each of non-transformed Arabidopsis thaliana (NT, which is denoted by “Col-0” in FIGS. 17A-17C) and transformed plant bodies (K31-4-2 which is denoted by “K31oe-4-2” in FIGS. 17A-17C and K31-6-5 which is denoted by “K31oe-6-5” in FIGS. 17A-17C) were cultivated on a medium containing each concentration of BS. […]

COc1cc(OC)nc(Oc2cccc(Oc3nc(OC)cc(OC)n3)c2C(=O)O)n1 [BS, bispyribac sodium]
Rate of emerging of true leaf (%) ([1]; drug 1.3 nM, day 12 after seeding): 44% | Rate of emerging of true leaf (%) ([1]; drug 1.3 nM, day 14 after seeding): 100% | Rate of emerging of true leaf (%) ([1]; drug 4.1 nM, day 12 after seeding): 67% | Rate of emerging of true leaf (%) ([1]; drug 4.1 nM, day 14 after seeding): 100% | Rate of emerging of true leaf (%) ([1]; drug 12 nM, day 12 after seeding): 56% | Rate of emerging of true leaf (%) ([1]; drug 12 nM, day 14 after seeding): 50% | Rate of emerging of true leaf (%) ([1]; drug 37 nM, day 12 after seeding): 0% | Rate of emerging of true leaf (%) ([1]; drug 37 nM, day 14 after seeding): 0% | Rate of emerging of true leaf (%) ([1]; drug 110 nM, day 12 after seeding): 0% | Rate of emerging of true leaf (%) ([1]; drug 110 nM, day 14 after seeding): 0% | Rate of emerging of true leaf (%) ([1]; drug 330 nM, day 12 after seeding): 0% | Rate of emerging of true leaf (%) ([1]; drug 330 nM, day 14 after seeding): 0% | Resistance of transformed rice to the drug ([2]; Table 4 and FIG. 25): exhibited resistance | Ratio of sensitivity ([2]; maximum drug concentration for CK ratio of 40% or more, K31-4-6-2 / wild-type rice): >100 | CK ratio (%) ([2]; K31-4-6-2, drug 0.01 μM): 106% | CK ratio (%) ([2]; K31-4-6-2, drug 0.1 μM): 97% | CK ratio (%) ([2]; K31-4-6-2, drug 1 μM): 103% | CK ratio (%) ([2]; K31-4-6-2, drug 10 μM): 74% | Callus growth [3]: demonstrated to grow | Callus growth [4]: not grown | BS sensitivity (germinated seeds, emerging of true leaves, fresh weight of above-ground part) [5]: significantly lower BS sensitivity compared to NT
